Literature values in US4981695A, “Composition comprising L-dopa” (priority 1986, dated 1991).

Experiments:
[1] = background
Parkinsons disease = details: particularly tremor; background

Row | Compound | decomposition by carboxylic elimination [1] | resorption (absorption window) ([1]; gastro-intestinal tract) | inhibition of symptoms of the Parkinsons disease (Parkinsons disease) | L-dopa dose on adding a decarboxylase inhibitor [1]
1 | N[C@@H](Cc1ccc(O)c(O)c1)C(=O)O [L-dopa, L-3,4-dihydroxyphenylalanine] | rapidly decomposed by carboxylic elimination | resorbed over a restricted part of the gastro-intestinal tract | active at the inhibition of symptoms of the Parkinsons disease | –
2 | NC(CO)C(=O)NNCc1ccc(O)c(O)c1O (centres unmarked) [benserazide] | – | – | – | considerably reduced
3 | C[C@@](Cc1ccc(O)c(O)c1)(NN)C(=O)O [carbidopa] | – | – | – | considerably reduced
